The values that follow come from paper PMC5456363 (PLoS ONE, 2017).

Non-standard residues stand in square brackets, D forms with d. Residues, ends and D or L forms follow the SMILES beside them.

A short description of data set [1]: Peptide stability in fresh blood taken by cardiac puncture into a syringe containing the peptide (blood, B). It is filed as in vitro ADME, CD-1 mice. Conditions: blood, 1 h. How it is done: (§1) All stability tests were performed at least in triplicates.
The nature of data set [2]: Peptide stability in direct serum (DS). It is filed as in vitro ADME, CD-1 mice. The note with it: 1 h. How it is done: as §1
A short description of data set [3]: Peptide stability in activated serum (AS). It is filed as in vitro ADME, CD-1 mice. The note with it: 1 h. How it is done: as §1
Data set [4] can be described thus: Peptide stability in commercial serum (CS). It is filed as in vitro ADME, mouse. Conditions: for prodrug expected to be present in full serum: extrapolated from 25% serum data assuming three-fold faster degradation in full serum. How it is done:
as §1

A short description of data set [5]: Peptide stability in heparin plasma (HP). It is filed as in vitro ADME, CD-1 mouse. The note with it: 1 h. How it is done:
as §1

A short description of data set [6]: Peptide stability in EDTA plasma (EP). The note with it: 1 h. It is filed as in vitro ADME, CD-1 mouse. How it is done: as §1
Details of data set [7]: method as in PMID 27067364. Conditions: 25% aqueous commercial serum; cited from earlier work.
Data set [8] in a line: Stability and metabolites across fresh blood, serum and plasma (all six matrices). The note with it: for Overall stability / Sequential stability: fresh blood, serum, and plasma.
Method: Aqueous peptide solutions (3 g/L) were filled in a sterile syringe (1 mL, Dispomed Witt oHG, Gelnhausen, Deutschland) through the front end, the stainless-steel needle was attached, and blood (200 to 300 μL) was collected via cardiac puncture to obtain a peptide concentration of approximately 31,5 μmol/L. The syringe was carefully disconnected from the needle and sealed while keeping the needle in the heart. A second empty syringe was attached to the needle and 0.5 to 0.8 mL blood were collected. In parallel, the sealed syringe was gently shaken for one minute to mix the peptide solution with blood and further incubated on a Stuart Rotator SB3 (Barloworld, Scientific LTD, Stone, Staffordshire, U.K.) placed in an incubator at 37°C. […] The plasma sample designated as “blood” (B) was precipitated with trichloroacetic acid (TCA), as described below. Blood collected in the second syringe was transferred to a polypropylene tube (Eppendorf AG, Hamburg, Germany) and a BD Microtainer® serum separator tube (SST; Becton, Dickinson and Company). Polypropylene tubes were centrifuged immediately (12,000 x g, 2 to 4 min) to obtain “direct serum” (DS) as supernatant, whereas the serum separator tubes were incubated (room temperature, 1 h), centrifuged (12,000 x g, 2 min), and collected as “activated serum” (AS). Pooled mouse serum was purchased from PAA Laboratories GmbH (Pasching, Austria) and pooled CD-1 mouse plasma containing K2EDTA or lithium heparin were obtained from Innovative Research (Novi, MI, USA).
Peptides were mixed with serum or plasma to a final concentration of 31.5 μmol/L and incubated (37°C, 750 rpm; Thermomixer, Eppendorf AG, Hamburg, Germany). Aliquots (20 or 40 μL) taken after 0 and 60 min (0, 10 and 30 min for Api88) were mixed with TCA to obtain a final concentration of 3% (w/v) and incubated on ice (10 min). After centrifugation (12,000 x g, 5 min), the supernatant was neutralized with sodium hydroxide (1 mol/L) and stored at −20°C. Samples were analyzed by RP-HPLC on a Jupiter C18-column (internal diameter: 2 mm, length: 150 mm, particle size: 5 μm, pore size: 30 nm) using a linear aqueous acetonitrile gradient containing TFA (0.1%, v/v) as ion pair reagent. Peptides were detected by recording the absorbance at 214 nm and quantified by their peak areas relative to the initial peak areas (0 min). All stability tests were performed at least in triplicates.
Metabolites were identified on an Agilent 1100 LC system (Agilent Technologies, Santa Clara, CA, USA) coupled on-line via a UV-detector (absorbance recorded at 214 nm) to the electrospray ionization source on an ion trap mass spectrometer (ESI-IT-MS, Esquire HCT, Bruker Daltonics GmbH, Bremen, Germany). Samples were separated on an Aqua C18-column (inner diameter: 2 mm, length: 150 mm, particle size: 3 μm, pore size: 12.5 nm, Phenomenex; column temperature: 60°C) at a flow rate of 0.2 mL/min using a linear gradient of aqueous acetonitrile in the presence of formic acid (FA; 0.1%, v/v) as ion pair reagent. […] The ESI-IT-MS was operated in positive ion mode. Ionization was carried out at 365°C (source temperature) using nitrogen as curtain gas (40 psi) and dry gas (9 L/min). Mass spectra were acquired for an m/z range from 400 to 1300 at a scan rate of 8100 m/z-units per second in standard enhanced mode.
A further data set has as its system thrombin. Also noted: method as in PMID 18665823. Conditions: recalcified citrated plasma; cited from earlier work.
In another data set the target is T1, human α-thrombin (Homo sapiens, UniProt P00734).
T1 construct: with human α-Thrombin for 0, 1, and 24 hours
Nature of the data set: α-Thrombin stability assay. Format: in vitro ADME. Conditions: cleavage C-terminal to Arg4; 0, 1, and 24 hours. How it is done: Supplementary file pone.0178943.s003.tif: S3 Fig Stability of Api88, Api137, and LVPR-Onc112 against human α-thrombin. Chromatograms recorded after incubation of Api88 (a), Api137 (b), or LVPR-Onc112 (c) with human α-Thrombin for 0, 1, and 24 hours (UV absorbance). […] (TIF) Click here for additional data file.
S1 Text. Method α-Thrombin stability assay.

The conditions of data set [9]: intravenous application in mice; cited from earlier work.
The conditions of data set [10]: mouse serum; cited from earlier work.

Regarding `CC[C@H](C)[C@H](NC(=O)[C@@H](CCCNC(=N)N)NC(=O)[C@H](CCCNC(=N)N)NC(=O)[C@@H]1CCCN1C(=O)[C@@H]1CCCN1C(=O)[C@H](CCCNC(=N)N)NC(=O)[C@@H]1CCCN1C(=O)[C@H](CCCNC(=N)N)NC(=O)[C@@H]1CCCN1C(=O)[C@H](CC(C)C)NC(=O)[C@H](Cc1ccc(O)cc1)NC(=O)[C@@H]1CCCN1C(=O)[C@@H]1CCCN1C(=O)[C@H](CCCCN)NC(=O)[C@H](CC(=O)O)NC(=O)[C@@H](NC(=O)[C@H](CCCNC(=N)N)NC(=O)[C@H](Cc1ccc(O)cc1)NC(=O)[C@H](C)NC(=O)[C@H](C)N)C(C)C)C(=O)N[C@@H](Cc1ccc(O)cc1)C(=O)N[C@@H](CC(N)=O)C(=O)N[C@H](CCCNC(=N)N)C(N)=O` [AAYR-Onc112, AAYRVDKPPYLPRPRPPRrIYNr-NH2] (H-AAYRVDKPPYLPRPRPPR[dR]IYN[dR]-NH2), the “Onc112 released relative to initial prodrug” value is listed as below 3% in [1]; below 3% in [2]; below 3% in [3]; 13 ± 2% in [4] (commercial serum, 1 h); 35 ± 4% in data set [5]; 40 ± 4% in data set [6]. Also, the “prodrug expected to be present in full serum” value in data set [4] is on record as 5%. Also, the “Onc112 released from linker peptide” value in [7] is on record as 85%. For the same molecule, the Overall stability entry in data set [8] was “Low”. For the same molecule, the Sequential stability entry in data set [8] is reported as “Blood = Plasma = Serum”.

For the molecule `O=C(O)CN(CCN(CC(=O)O)CC(=O)O)CC(=O)O` [EDTA, ethylenediaminetetraacetic acid], the “thrombin reactivated in presence of the anticoagulant” value in the data set with thrombin is reported as 0.39 U/mL.

By fraction remaining is commonly meant what is left of the initial amount, in per cent. In the case of `CC[C@H](C)[C@H](NC(=O)[C@@H](CCCNC(=N)N)NC(=O)[C@H](CCCNC(=N)N)NC(=O)[C@@H]1CCCN1C(=O)[C@@H]1CCCN1C(=O)[C@H](CCCNC(=N)N)NC(=O)[C@@H]1CCCN1C(=O)[C@H](CCCNC(=N)N)NC(=O)[C@@H]1CCCN1C(=O)[C@H](CC(C)C)NC(=O)[C@H](Cc1ccc(O)cc1)NC(=O)[C@@H]1CCCN1C(=O)[C@@H]1CCCN1C(=O)[C@H](CCCCN)NC(=O)[C@H](CC(=O)O)NC(=O)[C@@H](NC(=O)[C@H](CCCNC(=N)N)NC(=O)[C@@H]1CCCN1C(=O)[C@@H](NC(=O)[C@@H](N)CC(C)C)C(C)C)C(C)C)C(=O)N[C@@H](Cc1ccc(O)cc1)C(=O)N[C@@H](CC(N)=O)C(=O)N[C@H](CCCNC(=N)N)C(N)=O` [LVPR-Onc112, LVPRVDKPPYLPRPRPPRrIYNr-NH2] (H-LVPRVDKPPYLPRPRPPR[dR]IYN[dR]-NH2), the fraction remaining at 1 h in data set [1] (CD-1, mouse, fresh whole blood, 37°C, 31.5 μmol/L, read-out: intact peptide remaining relative to time zero) turned out to be 67 ± 4%. In data set [1], the “sum of prodrug and released Onc112 relative to initial amount” value is recorded as 85%. In addition, the “prodrug expected to be present in full serum” value in [4] was 14%. Moreover, on human α-thrombin, the “hydrolysis by thrombin compared with Api88” value is recorded as “slower”. Also, the “Onc112 released from linker peptide” value in data set [7] was 57%. The “sum of prodrug and released Onc112 relative to initial amount” value in [8] (all matrices except for blood, 1 h) is reported as around 100%. In [8], the Overall stability entry is on record as “Low” and the Sequential stability entry is on record as “Blood > Serum > Plasma”.

With `CC[C@H](C)[C@H](NC(=O)[C@@H](CCCNC(=N)N)NC(=O)[C@H](CCCNC(=N)N)NC(=O)[C@@H]1CCCN1C(=O)[C@@H]1CCCN1C(=O)[C@H](CCCNC(=N)N)NC(=O)[C@@H]1CCCN1C(=O)[C@H](CCCNC(=N)N)NC(=O)[C@@H]1CCCN1C(=O)[C@H](CC(C)C)NC(=O)[C@H](Cc1ccc(O)cc1)NC(=O)[C@@H]1CCCN1C(=O)[C@@H]1CCCN1C(=O)[C@H](CCCCN)NC(=O)[C@H](CC(=O)O)NC(=O)[C@@H](N)C(C)C)C(=O)N[C@@H](Cc1ccc(O)cc1)C(=O)N[C@@H](CC(N)=O)C(=O)N[C@H](CCCNC(=N)N)C(N)=O` [Onc112, VDKPPYLPRPRPPRrIYNr-NH2] (H-VDKPPYLPRPRPPR[dR]IYN[dR]-NH2), the “intact peptide remaining relative to time zero” value in data set [1] (37°C, 31.5 μmol/L) is reported as “at least 96%”; in [2] (37°C, 31.5 μmol/L), “at least 96%”; in data set [3] (37°C, 31.5 μmol/L) it was “at least 96%”; in data set [5] (37°C, 31.5 μmol/L) it was “at least 96%”; in data set [6] (37°C, 31.5 μmol/L), “at least 96%”. In [4] (mouse, commercial pooled serum, commercial serum, 1 hour, read-out: peptide degraded), the metabolised at 1 h, 31.5 μmol/L was below 2%. For the same molecule, the “plasma levels relative to Onc72” value in [9] is listed as “around fivefold”. Further, the serum half-life time result in data set [10] is listed as “more than 8 h”. For the same molecule, the “Matrix in which the metabolite was identified” value in [8] (LC-MS, peak area at least 1% of initially incubated peptide, B blood, DS direct serum, AS activated serum, CS commercial serum, EP EDTA plasma, HP heparin plasma, All = all six) was “All”. Besides, in data set [8], the Overall stability result is reported as “High”. In addition, the Sequential stability entry in data set [8] is reported as “Blood = Plasma = Serum”.

Regarding heparin, in the data set on thrombin, the “thrombin reactivated in presence of the anticoagulant” value is on record as 0.06 U/mL.
